From patent publication US12024504B2, “1-methyl-1H-pyrazol-3-yl derivatives for use in the treatment of neovascular diseases” (EXONATE LIMITED, priority 2021, dated 2024)

Key:
[1] = Porcine scleral permeability (modified Ussing chamber); assay type: in vitro ADME; details: pig, pH 7.4, porcine excised eye tissue, 10 μg/mL compound on donor side
Method: Scleral permeability was measured using a modified Ussing chamber assembly in the initial eye drop formulation containing 1% hydroxypropyl methyl cellulose, 0.2% tyloxapol, 3.4% dextrose, 0.006% benzalkonium chloride, and 0.025% ethylenediaminetetraacetic acid with 1% DMSO in PBS (pH 7.4). Porcine excised eye tissues were mounted in the chambers such that the episcleral side faced the donor chamber and the retinal side faced the receiver chamber. The chambers were filled with equal volumes of eye drop formulation, with (donor side) or without (receiver side) 10 μg/mL compound. After 24 hours tissue was removed from the chamber and the receiver side (“vitreous”) sampled. Tissue was dissected into sclera, choroid/RPE, and retina and homogenised. A tracer (SPHINX7; WO 2015/159103) was added, and tissue extracted by acetonitrile extraction as described in Batson et al (2017). Compounds were then analysed by mass spectrometry as described in Batson et al (2017).
To determine whether compounds could get across the sclera of a larger animal, porcine sclera was clamped between two chambers and compounds were added to the sclera with eye drop formulation added to the bottom chamber and compounds added to the top chamber. After 24 hours, the fluid from the bottom chamber (vitreous) and the retinal tissue was isolated and compounds purified by methanol or acetonitrile extraction and HPLC.

[2] = Rabbit pharmacokinetic study (eye drop); assay type: in vivo; details: single 50 μL eye drop, 500 μg/mL, 1, 4, 12 or 24 hours
Method: Rabbits were treated with a single 50 μL eye drop of pazopanib at 80 μg/ml (maximum limit of solubility) and compound R at 500 μg/mL in the initial eye drop formulation containing 1% hydroxypropyl methyl cellulose, 0.2% tyloxapol, 3.4% dextrose, 0.006% benzalkonium chloride, and 0.025% ethylenediaminetetraacetic acid with 1% DMSO in PBS or with a single 50 μL eye drop of compound 1 at 500 μg/mL in the eye drop formulation containing 7% poly-oxyl-40-stearate and 4% dextrose in PBS. No difference between the eye drop formulations was confirmed in a separate study. Rabbits were killed at the indicated time points after the eye drop, blood and eyes taken, and the retina dissected from the choroid and sclera, incisions made, and laid out flat. Retina, RPE/choroid and sclera eye compartments were dissected into 7 different areas. All samples were weighed. Compound was extracted by reverse phase extraction from the retina and choroid/sclera samples and the plasma as above, and amount determined by mass spectrometry in different areas of the eye and in the blood. […]
To determine if the compounds could access the RPE of an animal with a large eye, a rabbit was exposed to 500 μg/mL of the compound as an eye drop and the concentrations in the retina, sclera, vitreous and other eye tissues (cornea); lens; RPE/choroid were measured. […]

VEGF-A165b and panVEGF = assay: STZ model of diabetes, retinal VEGF immunoblotting; assay type: in vivo, Norway Brown rats; details: diabetic rats, bidaily eye drops for 28 days, Western blot
Method: To determine whether compound 1 could effectively switch the splicing of VEGF in a model of diabetes we used the STZ model of diabetes in Norway Brown rats. Diabetic animals were treated with twice daily eye drops of compound 1 for four weeks and killed, and the retina dissected. Protein was extracted and subjected to immunoblotting for VEGF-A165b and panVEGF.

Cn1ccc(CN2CCN(c3ccc(C(F)(F)F)cc3NC(=O)c3ccc(C4CCOCC4)o3)CC2)n1 [Compound 1, N-(2-(4-((1-methyl-1H-pyrazol-3-yl)methyl)piperazin-1-yl)-5-(trifluoromethyl)phenyl)-5-(tetrahydro-2H-pyran-4-yl)furan-2-carboxamide]
Papp at 24 h, 10 μg/mL [1]: 0.067 ×10⁻⁶ cm/s
Retinal penetration after eye drop [2]: better sustained penetration (e.g. at 4 hrs) than chemically similar molecules such as Compound R
Proportion of VEGF-A165b to total VEGF (VEGF-A165b and panVEGF): increased
Total VEGF in retina (VEGF-A165b and panVEGF): total VEGF is reduced
VEGF-A165b in retina (VEGF-A165b and panVEGF): VEGF-A165b is increased
